# Species: Rattus norvegicus
# Assay: DrugMatrix - Regimen: Daily Repeat
# Assay type: toxicity, organism-based, Sprague-Dawley
# Set-up: regimen Daily Repeat, gender Male, age 6-8 weeks
# Settings: in vivo, po, […], route oral GAVAGE, vehicle 100 % SALINE; for ALBUMIN / ALKALINE PHOSPHATASE / ASPARTATE AMINOTRANSFERASE / BLOOD UREA NITROGEN / CARBON DIOXIDE / CHLORIDE / CHOLESTEROL / CREATINE PHOSPHOKINASE / CREATININE / GLUCOSE / LACTATE DEHYDROGENASE / LIPASE / PHOSPHORUS / POTASSIUM / SODIUM / TOTAL BILIRUBIN / TOTAL PROTEIN / URIC ACID / ALANINE AMINOTRANSFERASE: tissue Plasma; for ABSOLUTE BASOPHIL / ABSOLUTE EOSINOPHIL / ABSOLUTE LYMPHOCYTE / ABSOLUTE MONOCYTE / BASOPHIL / EOSINOPHIL / ERYTHROCYTE COUNT / HEMATOCRIT / HEMOGLOBIN / LEUKOCYTE COUNT / LYMPHOCYTE / MEAN CORPUSCULAR HEMOGLOBIN / MEAN CORPUSCULAR HEMOGLOBIN CONCENTRATION / MEAN CORPUSCULAR VOLUME / MONOCYTE / NEUTROPHIL / PLATELET COUNT: tissue Blood
# [1] = 0 mg/kg, dose level Control, time 14 day
# [2] = 72 h, dose 7.5 mg/Kg, dose level High, time 3 day
# [3] = 120 h, dose 7.5 mg/Kg, dose level High, time 5 day
smiles,measurement,setting,value
"Nc1ncnc2c1ncn2[C@@H]1O[C@H](CO)[C@@H](O)[C@H]1F [2'-BETA-FLUORO-2',3'-DEOXYADENOSINE]",ALBUMIN,[1],3.83 G/DL
same,ALKALINE PHOSPHATASE,[1],334.67 u/L
same,ASPARTATE AMINOTRANSFERASE,[1],69.33 u/L
same,BLOOD UREA NITROGEN,[1],16 mg/dL
same,CARBON DIOXIDE,[1],40 mmol/L
same,CHLORIDE,[1],105.67 MEQ/L
same,CHOLESTEROL,[1],70.33 mg/dL
same,CREATINE PHOSPHOKINASE,[1],144.67 u/L
same,CREATININE,[1],0.3 mg/dL
same,GLUCOSE,[1],177.67 mg/dL
same,LACTATE DEHYDROGENASE,[1],97.67 u/L
same,LIPASE,[1],16.33 u/L
same,PHOSPHORUS,[1],10.83 mg/dL
same,POTASSIUM,[1],5.77 MEQ/L
same,SODIUM,[1],143.33 MEQ/L
same,TOTAL BILIRUBIN,[1],0.33 mg/dL
same,TOTAL PROTEIN,[1],6.37 G/DL
same,URIC ACID,[1],0.17 mg/dL
same,ABSOLUTE BASOPHIL,[2],280 cells/µL
same,ABSOLUTE EOSINOPHIL,[2],220 cells/µL
same,ABSOLUTE LYMPHOCYTE,[2],9970 cells/µL
same,ABSOLUTE MONOCYTE,[2],370 cells/µL
same,BASOPHIL,[2],2.3%
same,EOSINOPHIL,[2],2.07%
same,ERYTHROCYTE COUNT,[2],6.92 x10E6/uL
same,HEMATOCRIT,[2],45.73%
same,HEMOGLOBIN,[2],14.7 G/DL
same,LEUKOCYTE COUNT,[2],12.17 x10E3/uL
same,LYMPHOCYTE,[2],81.03%
same,MEAN CORPUSCULAR HEMOGLOBIN,[2],21.23 pg
same,MEAN CORPUSCULAR HEMOGLOBIN CONCENTRATION,[2],32.1 G/DL
same,MEAN CORPUSCULAR VOLUME,[2],66.07 fL
same,MONOCYTE,[2],3.03%
same,NEUTROPHIL,[2],11.03%
same,PLATELET COUNT,[2],1214.67 x10E3/uL
same,ALANINE AMINOTRANSFERASE,[2],43.33 u/L
same,ALBUMIN,[2],3.93 G/DL
same,ALKALINE PHOSPHATASE,[2],434.67 u/L
same,ASPARTATE AMINOTRANSFERASE,[2],98.33 u/L
same,BLOOD UREA NITROGEN,[2],16 mg/dL
same,CARBON DIOXIDE,[2],43.33 mmol/L
same,CHLORIDE,[2],103 MEQ/L
same,CHOLESTEROL,[2],76.33 mg/dL
same,CREATINE PHOSPHOKINASE,[2],214.67 u/L
same,CREATININE,[2],0.43 mg/dL
same,GLUCOSE,[2],167.67 mg/dL
same,LACTATE DEHYDROGENASE,[2],99.33 u/L
same,LIPASE,[2],12 u/L
same,PHOSPHORUS,[2],11 mg/dL
same,POTASSIUM,[2],7.1 MEQ/L
same,SODIUM,[2],144 MEQ/L
same,TOTAL BILIRUBIN,[2],0.33 mg/dL
same,TOTAL PROTEIN,[2],6.37 G/DL
same,URIC ACID,[2],0.97 mg/dL
same,ABSOLUTE BASOPHIL,[3],86.7 cells/µL
same,ABSOLUTE EOSINOPHIL,[3],120 cells/µL
same,ABSOLUTE LYMPHOCYTE,[3],11100 cells/µL
same,ABSOLUTE MONOCYTE,[3],270 cells/µL
same,BASOPHIL,[3],0.63%
same,EOSINOPHIL,[3],0.9%
same,ERYTHROCYTE COUNT,[3],7.18 x10E6/uL
same,HEMATOCRIT,[3],44.8%
same,HEMOGLOBIN,[3],14.83 G/DL
same,LEUKOCYTE COUNT,[3],13.05 x10E3/uL
same,LYMPHOCYTE,[3],85.27%
same,MEAN CORPUSCULAR HEMOGLOBIN,[3],20.7 pg
same,MEAN CORPUSCULAR HEMOGLOBIN CONCENTRATION,[3],33.13 G/DL
same,MEAN CORPUSCULAR VOLUME,[3],62.43 fL
same,MONOCYTE,[3],2.07%
same,NEUTROPHIL,[3],10.57%
same,PLATELET COUNT,[3],1282.67 x10E3/uL
same,ALANINE AMINOTRANSFERASE,[3],66 u/L
same,ALBUMIN,[3],3.73 G/DL
same,ALKALINE PHOSPHATASE,[3],389.33 u/L
same,ASPARTATE AMINOTRANSFERASE,[3],161.67 u/L
same,BLOOD UREA NITROGEN,[3],16 mg/dL
same,CARBON DIOXIDE,[3],40 mmol/L
same,CHLORIDE,[3],106.67 MEQ/L
same,CHOLESTEROL,[3],69.67 mg/dL
same,CREATINE PHOSPHOKINASE,[3],169 u/L
same,CREATININE,[3],0.4 mg/dL
same,GLUCOSE,[3],172.33 mg/dL
same,LACTATE DEHYDROGENASE,[3],94.33 u/L
same,LIPASE,[3],11.33 u/L
same,PHOSPHORUS,[3],10.2 mg/dL
same,POTASSIUM,[3],6.1 MEQ/L
same,SODIUM,[3],147.33 MEQ/L
same,TOTAL BILIRUBIN,[3],0.3 mg/dL
same,TOTAL PROTEIN,[3],6.03 G/DL
same,URIC ACID,[3],0.97 mg/dL
